The source of these data is patent publication US5686061A, “Particulate contrast media derived from non-ionic water soluble contrast agents for CT enhancement of hepatic tumors” (priority 1994, dated 1997).

Broadly, the LD50 is the dose expected to kill half of the subjects tested.

One data set can be described thus: Solubility of IX-C. It is filed as physicochemical.
The next data set relates to liver. The data set is described as follows: Computed tomography of liver in normal rabbits. The format is in vivo, New Zealand white rabbits. The settings on record: predicted from CT imaging data. As to the method: New Zealand white rabbits (male, 3.0 to 3.5 kg) were anesthetized by an intramuscular injection of a solution containing xylazine (8.6 mg/ml), ketamine (42.9 mg/ml), and acepromazine (1.4 mg/ml) at a dose of 0.4 ml/kg for a long-lasting effect. Intravenous catheters (22-gauge) were placed in a marginal ear vein for the introduction of particle suspension. Rabbits were positioned supine in a GE model 9800 Quick scanner (Milwaukee, Wis.). The particulate contrast agent of proper volume (8% I, w/v in saline) was injected through the catheterized ear vein over a period of 10 to 15 minutes.
CT imaging of radiopaque particles (80 mg I/ml) was carried out at doses of 100, 200, and 270 mg I/kg body weight respectively. Three rabbits were used for each dose level. CT imaging was done with a scan speed of 1.0 seconds, 120 kV, 280 mAs, and a 25-cm field of view. Sequential, contiguous 3-mm-thick slices through the abdomen and 5-mm-thick-slices through the pelvis were obtained before contrast injection, immediately after injection and at various times (15 and 30 minutes, 1, 2, and 6 hours, and 1, 2, and 7 days after injection). The rabbits were killed with an overdose of pentobarbital sodium (50 mg/kg) administered via the catheterized ear vein.
Densitometric analysis of the liver, kidney, aorta, and bladder were performed. […]

In another data set the test system is Swiss Webster mice. The data set is described as follows: in vivo. The settings on record: male and female mice. As to the method: (§1) Swiss Webster mice (Harlan Sprague Dawley Inc., Indianapolis, Ind.) weighing between 25 and 30 g were given doses ranging from 0.2 to 1 ml/mouse. Five animals were used for each dose. No anesthesia was used for injection. Following the injection, animals were monitored daily for 7 days. The percentage survival vs. dose curve was constructed to estimate LD50.

The nature of a further data set: in vivo. To be noted: mouse, in vivo, iv. As to the method: as §1
The nature of data set [1]: Hydrolytic degradation of IX-C particles (HCl, NaOH, saline). The format is physicochemical. The settings on record: supernatants of all samples (HCl, NaOH, saline, plasma). How it is done: (§2) Degradation of IX-C particles was investigated by incubating a suspension of the particles (25 mg) in the following solutions (each 1 ml) at 37° C.:0.1 N HCl, 0.1 N NaOH, saline, and rabbit plasma. The disappearance of the particles in the suspensions was noted by visual observations and the integrity of the particles was examined by scanning electron microscopy. To identify the degradation products, the residual solutions were subjected to analysis by HPLC. The HPLC system consisted of a RP-18 column, a Perkin-Elmer isocratic LC pump (Model 250), a PE Nelson 900 series interface, a Spectra-Physics UV/Vis detector (Model SP 8540) and a data station. The eluant (10% methanol in double distilled water) was run at 0.8 ml/min. with UV detection at 254 nm. Samples in HCl or NaOH were neutralized before injection. Plasma samples were first treated with PCA (0.4 N) and centrifuged to remove precipitate proteins. The supernatants were then injected for HPLC analysis.

Data set [2] is described as follows: Enzymatic degradation of IX-C particles in rabbit plasma. It is filed as in vitro ADME. The settings on record: plasma samples. As to the method:
as §2

In the next data set the test system is endothelial cells. To be noted: background; cited from earlier work.
For data set [3] the following is noted: background; cited from earlier work.

“Also recorded” adds a separate entry of the source. Read-outs that look alike come from different tables or passages of the source.

In the case of `CC(=O)N(CC1COC(=O)O1)c1c(I)c(C(=O)NCC2COC(=O)O2)c(I)c(C(=O)N2CCOC2=O)c1I` (centres unmarked) [IX-C, cyclic carbonate of IOXILAN], the lipid solubility result in the data set “Solubility of IX-C” is “lipid soluble”. For the same compound, the solubility in acetone result in “Solubility of IX-C” (acetone) is listed as “soluble in acetone”. Also, the “solubility in methylene chloride” value in “Solubility of IX-C” (methylene chloride) is recorded as “limited solubility in methylene chloride; also recorded: slightly soluble in methylene chloride”. In the data set “Solubility of IX-C” (water), the solubility in water entry was “insoluble in water”. Besides, in the data set with liver, the predicted diagnostic dose is on record as 100 mg I/kg body weight. Further, the “LD50 compared with those reported for other particulate CM” value with Swiss Webster mice is on record as “slightly higher than those reported for other particulate CM”. In addition, the median lethal dose (LD50) at 168 h in “in vivo” (female Swiss Webster mice, tail vein, 7 days, read-out: LD50, females, as iodine) was 1200 mg/kg; in “in vivo” (female Swiss Webster mice, corresponding IX-C dose, read-out: LD50, females, as IX-C) it was 2600 mg/kg; in the data set “in vivo” (male Swiss Webster mice, tail vein, 7 days, read-out: LD50, males, as iodine), 1400 mg/kg; in “in vivo” (male Swiss Webster mice, corresponding IX-C dose, read-out: LD50, males, as IX-C), 3100 mg/kg. In addition, in data set [1], the “degradation products (HPLC)” value is “IOXILAN and carbon dioxide”. The “degradation product confirmed by FAB mass spectroscopy” value in data set [2] is listed as “presence of IOXILAN was confirmed”.

Turning to `O=C(CCCCC(=O)Nc1c(I)cc(I)c(C(=O)O)c1I)Nc1c(I)cc(I)c(C(=O)O)c1I` [Iodipamide, iodipamide], the “toxicity to endothelial cells” value in the data set with endothelial cells is recorded as “toxic to endothelial cells”.

Turning to `CC(=O)N(CC(O)CO)c1c(I)c(C(=O)NCCO)c(I)c(C(=O)NCC(O)CO)c1I` (centres unmarked) [IOXILAN], the overall biological tolerance result in data set [3] is on record as “high overall biological tolerance”.
